Tests used:
[1] = target: T1, PTEN (phosphatase and tensin homologue deleted on Chromosome 10) (Homo sapiens, UniProt P60484); assay: malachite green phosphate release from PIP3; assay type: biochemical; details: PIP3 200 μM, PTEN 50 μM, IHP 2.5-40 mM; Tris-HCl pH 7.5, 10 mM DTT, 37 °C
T1 construct: commercial recombinant PTEN; immobilised on CM5 chip for SPR

[2] = target: T1, PTEN (phosphatase and tensin homologue deleted on Chromosome 10); assay: SPR, PTEN immobilised on CM5 chip, Biacore T200, […] Langmuir with mass transport; assay type: binding; details: 25 °C, HBS; PIP3 25-400 μM; acyl chains of PIP3 not told

T1 sequence (P60484 2-403): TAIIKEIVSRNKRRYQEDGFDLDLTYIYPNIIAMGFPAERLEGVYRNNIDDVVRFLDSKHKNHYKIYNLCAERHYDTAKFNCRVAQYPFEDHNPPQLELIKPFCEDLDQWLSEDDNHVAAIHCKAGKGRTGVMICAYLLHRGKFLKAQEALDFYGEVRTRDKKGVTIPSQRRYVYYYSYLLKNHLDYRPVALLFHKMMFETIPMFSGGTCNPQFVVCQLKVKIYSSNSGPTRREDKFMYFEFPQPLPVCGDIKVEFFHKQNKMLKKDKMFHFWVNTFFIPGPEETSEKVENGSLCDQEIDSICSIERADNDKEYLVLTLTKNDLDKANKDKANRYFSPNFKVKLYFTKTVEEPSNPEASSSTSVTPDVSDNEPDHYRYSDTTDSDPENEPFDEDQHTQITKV

Compound	malachite green phosphate release from PIP3 [1]	K D [2]
O=P(O)(O)O[C@H]1[C@H](OP(=O)(O)O)[C@@H](OP(=O)(O)O)[C@H](OP(=O)(O)O)[C@@H](OP(=O)(O)O)[C@H]1OP(=O)(O)O [IHP]	IHP inhibits hydrolysis in a concentration‐dependent manner	–
PIP3	–	~ 2.5 micromoles
